AC50 data for 66 compounds are collected here from PubChem BioAssay AID449750 (Broad Institute, 2010).

The structures appear in SMILES notation. Activity calls are given as the source filed them. The rule behind the calls is not given here.

A word on the AC50: it is the concentration giving half of the maximal activity seen.

A short description of this experiment: non-covalent RecA intein splicing inhibitors, dose response, biochemical, cell-free, fluorescence, secondary screen (AID 449750).
On to `C/C(=C\c1ccco1)C1C(C#N)=C(N)Oc2n[nH]c(-c3ccccc3)c21` (stereo unspecified), for which the AC50 is 20.8 µM. The figure for `CCCCCc1c2c(cc(O)c1C(=O)O)OC(=O)c1c(cc(OC)cc1C(=O)CCCC)O2` is 8.72 µM; for `Cn1nc([N+](=O)[O-])c(C(C#N)c2ccccn2)c(Cl)c1=O` (stereo unspecified) it is > 38 µM (inactive); for `O=C(Nc1cccc(OC(=O)c2ccco2)c1)c1ccco1` it is > 38 µM (inactive). Regarding `O=c1[nH]c(O)c(N=Nc2cc([N+](=O)[O-])ccc2O)c(=O)[nH]1`, the AC50 was 2.29 µM. In the case of `CCCn1c(=O)[nH]c(=O)c2c1nc(-c1ccc(OC(F)F)c(OC)c1)n2CCOC`, the AC50 was > 38 µM (inactive).

With `COc1ccc(S(=O)(=O)c2cnc3ccccc3n2)cc1`, the AC50 was > 38 µM (inactive). The figure for `COC(CNC(=O)c1ccc2c3c(onc13)-c1ccccc1C2=O)OC` is > 38 µM (inactive); for `COc1ccccc1-c1c(C)oc2cc(OC(=O)c3ccco3)ccc2c1=O` it is > 38 µM (inactive). For `CCCOC(=O)c1ccc(OC(=O)c2ccco2)cc1` the value was > 38 µM (inactive); for `Cn1c(SCC(=O)NCC2CCCO2)ncc(C(=O)Nc2ccc(F)cc2)c1=O` (stereo unspecified), 7.58 µM; for `COC(=O)C[C@]1(C(=O)OC)CN(C#N)N(c2ccc(Cl)cc2)C12c1ccccc1-c1ccccc12`, 14.3 µM. For `OCCN(CCO)c1ccc(C(c2ccccc2Cl)c2ccc(N(CCO)CCO)cc2Cl)c(Cl)c1` the value was 4.12 µM; for `COc1ccc(OC)c(C2C(C#N)=C(N)Oc3c2c(C)nn3-c2cccc(Cl)c2)c1` (stereo unspecified), 30 µM; for `CC(/C=N/NC(=O)Cc1cc(=O)[nH][nH]1)=C\c1ccccc1`, 27 µM. Regarding `O=C(Sc1nnc(-c2ccccc2)o1)N1c2ccccc2Sc2ccccc21`, the AC50 is 11 µM. As for `Cc1cc(C(c2ccc(O)cc2)c2cc(C)c(O)cc2C)c(C)cc1O`, the AC50 is 4.95 µM. For `COc1ccc(C(c2c(C)[nH]n(-c3ccccc3)c2=O)c2c(C)[nH]n(-c3ccccc3)c2=O)cc1OC` the value was 1.38 µM; for `O=C1C=C(Nc2ccccc2C(=O)O)c2ccccc2C1=O`, 6.57 µM.

As to `CCn1c2ccccc2c2cc(C3C(C#N)=C(N)Oc4n[nH]c(COC)c43)ccc21` (stereo unspecified), the AC50 is 8.48 µM. For `CCCCn1c(NC(=O)c2ccco2)c(S(=O)(=O)c2ccc(C)cc2)c2nc3ccccc3nc21` the value was > 38 µM (inactive); for `Cc1[nH]n(-c2ccccc2)c(=O)c1/C=N/NC(=O)c1ccc(O)cc1O`, > 38 µM (inactive); for `COc1cc(/C=C2/C(=O)N(c3cccc(Br)c3)N=C2C)cc(OC)c1O`, 9.46 µM. The figure for `COc1ccc(OC)c(N2C(=O)C(Cl)=C(N3CCOCC3)C2=O)c1` is > 38 µM (inactive); for `O=c1cc(-c2cccc3ccccc23)[nH][nH]1` it is 12.1 µM.

Regarding `O=[N+]([O-])c1cc([N+](=O)[O-])c2c(=Nc3ccccc3)n(-c3ccccc3)n(O)c2c1`, the AC50 was 21.7 µM. The figure for `CCOc1ccc(NC(=O)C(c2ccccn2)N(C(=O)CCl)c2ccc(F)cc2)cc1` (stereo unspecified) is 36.2 µM. The figure for `Cc1ccccc1CS(=O)(=O)c1ncc(Cl)c(C(=O)Nc2ccc(F)cc2)n1` is > 38 µM (inactive); for `Cc1cc(C(=O)N/N=C/c2c(C)[nH]n(-c3ccccc3)c2=O)n[nH]1` it is 3.74 µM; for `Cc1ccc(C(=O)N/N=C/c2ccc(-c3ccccc3[N+](=O)[O-])o2)cn1` it is 9.17 µM. For `FC(F)(F)c1ccc(C2[C@H]3CN(Cc4cccnc4)[C@H](c4ccccc4)C34CC2(c2cccnc2)C4)cc1` (stereo partly specified) the value was 5.51 µM. For the compound `CC1=NN(c2ccc(N)cc2)C(=O)C1`, the AC50 is 3.44 µM.

Regarding `FC(F)(F)c1ccc2c(c1)N(CCCN1CCN(CCCl)CC1)c1ccccc1S2`, the AC50 is 2.54 µM. For `Cc1nc2ccccc2c2c1C(=O)N(C(C)C)C2=O` the value was > 38 µM (inactive); for `COc1cc2c(cc1OC)-c1c(OC)c(OC)cc3c1[C@H](C2)N(C)CC3`, 27 µM; for `O=S(=O)(Nc1c(O)ccc2ccccc12)c1cccc2ccccc12`, 26.8 µM. For `O=C(O)c1ccc(-n2c(=O)c3ccccc3c3ccccc3c2=O)cc1`, the AC50 was > 38 µM (inactive).

Consider `CC1CCCCC1NC(=O)NC(=O)CCl` (stereo unspecified), for which the half-maximal activity concentration (AC50) was 39.8 µM. The figure for `CCC1=Nc2cc(C(=O)NCCN3CCCC3)ccc2Sc2ccccc21` is > 38 µM (inactive); for `Cc1sc(NC(=O)/C=C/C(=O)O)c(C(N)=O)c1-c1ccc(C(C)(C)C)cc1` it is 11.9 µM. For `Cn1nc(-c2ccccn2)nc2c(=O)n(C)c(=O)nc1-2` the value was 0.176 µM; for `Cc1ccc(Cn2ncc(Cl)c(Cl)c2=O)cc1`, 22 µM.

As to `Cc1ccc(-c2noc(-c3ccccc3C(=O)N3CCOCC3)n2)cc1`, the AC50 is > 38 µM (inactive).

Consider `COc1ccccc1/C=C1/C(=O)N(c2ccccc2)N=C1C`, for which the AC50 is > 38 µM (inactive).

Turning to `O=C(CCl)c1cc2c3c(c1)CC(=O)N3CCC2`, the AC50 is > 38 µM (inactive). For `Cc1ccc(S(=O)(=O)Oc2ccc(C(c3c(C)[nH][nH]c3=O)c3c(C)[nH][nH]c3=O)cc2)cc1` the value was 2.22 µM; for `COc1ccccc1-c1cc(C(F)(F)F)nc(S(=O)(=O)CCCC(=O)N2CCOCC2)n1`, 13.6 µM; for `O=C(CSc1nnc(-c2ccccc2Cl)o1)Oc1ccc(Br)cc1`, > 38 µM (inactive). The figure for `Cc1ccc(NC2=CC(=O)C(=O)c3ccccc32)cc1` is 6.16 µM; for `CS(=O)(=O)C1=NSC2=NC(=O)/C(=C\c3ccc(OC(=O)c4ccco4)cc3)C(=N)N21` it is > 38 µM (inactive). Regarding `O=C(CCl)Nc1ccccc1C(=O)Nc1ccc2c(c1)OCO2`, the AC50 was 10.5 µM. Take `CC(C)c1nnc(NC(=O)CCS(=O)(=O)c2nc(-c3cccs3)cc(C(F)(F)F)n2)s1`: the AC50 was > 38 µM (inactive). For `Cc1ccc(C)c(S(=O)(=O)/N=C2\C=C(NS(=O)(=O)c3ccccc3)C(=O)c3ccccc32)c1` the value was 2.79 µM; for `O=S(=O)(O)Oc1c[nH]c2ccccc12`, 5.48 µM; for `CCOC(=O)c1ccc(CC2S/C(=C(\C#N)C(C)=O)NC2=O)cc1` (stereo unspecified), > 38 µM (inactive). For the compound `N#CC1(NC(=O)COC(=O)c2cc(O)c3ccccc3c2O)CCCCC1`, the AC50 was 10.2 µM. In the case of `Nc1ccc2c(c1)C(=O)C(=O)c1ccccc1-2`, the AC50 was 17.6 µM. For `Cn1[nH]c(CSc2ccc(Cl)cc2)cc1=O` the value was 13.3 µM; for `COc1cc(Br)c(C(=O)c2nccc3cc(OC)c(OC)cc23)cc1OC`, 6.24 µM; for `C[n+]1c2ccccc2nc2ccc(NCCO)cc21`, 10.1 µM. As to `O=C1c2ccccc2C(=O)c2c1ncn2-c1ccccc1`, the AC50 was > 38 µM (inactive).

For `COc1cccc(NC(=O)CSc2c3c(nc4ccccc24)CCCC3)c1`, the AC50 is 39.5 µM. For `Cc1ccccc1-c1nc(CN(C)C(C)c2ccon2)c(C)o1` (stereo unspecified) the value was > 38 µM (inactive). For `CCOC(=O)c1c(OCC)[nH]c2c1cc(O)c1ccccc12` the value was 32.1 µM; for `COC(=O)CSc1nc(N)c2c3c(sc2n1)C(c1ccccc1)SC(c1ccccc1)C3` (stereo unspecified), > 38 µM (inactive); for `O=C1/C(=N\S(=O)(=O)c2cccs2)C([n+]2ccccc2)=C([O-])c2ccccc21`, 7.78 µM.
